Three compounds from patent US20210283139A1, “BIFUNCTIONAL MOLECULES FOR TARGETING UCHL5” (AMPHISTA THERAPEUTICS LTD, priority 2018, published 2021) can be followed below.

Assay type in all cases: cell-based
The target of data set [1] is T1, Brd4 (L) (Homo sapiens, UniProt O60885).
T1 construct: endogenous in cells; host or cells: HEK293, HeLa
Briefly: Time-dependent BET degradation, immunoblot, HeLa cells. The settings on record: timecourse 0-8 h. Set-up: dose or concentration left out as unconfirmed. Here is the method: (§1) Cell culture. HeLa (CCL-2) and HEK293 (CRL-1573) cells were purchased from ATCC and cultured in DMEM medium (Gibco) supplemented with 10% FBS, 100 μg/mL penicillin/streptomycin and L-glutamine. Cells were grown at 37° C. and 5% CO2, and were kept no longer than 30 passages. All cell lines were routinely tested for mycoplasma contamination using MycoAlert kit from Lonza.
(§2) Immunoblotting. proteins were separated by SDS-PAGE on NuPage 4-12% Bis-Tris gels, followed by transfer to Amersham Protran 0.45 NC nitrocellulose membrane (GE Healthcare) using wet transfer. Membranes were blocked using 5% w/v milk in Tris-buffered saline (TBS) with 0.1% Tween-20. Blots were probed (overnight at 4° C.) using anti-Brd2 (Abcam ab139690, 1:2,000 dilution), anti-Brd3 (Abcam ab50818, 1:500 dilution), and anti-Brd4 (Abcam ab128874, 1:1,000 dilution) primary antibodies, as appropriate. The next day, blots were washed with TBST and incubated (1 hr at RT) with anti-Tubulin hFAB-rhodamine (BioRad, 12004166) primary antibody, and either anti-rabbit IRDye 800CW (Licor 1:10,000 dilution) or anti-mouse IRDye 800CW (Licor 1:10,000 dilution) secondary antibody. Blots were developed using a Bio-Rad ChemiDoc MP Imaging System, and band quantification was performed using Image Studio software (LiCor). Band intensities were normalized to the tubulin loading control and reported as % of the average 0.1% DMSO vehicle intensity. Degradation data was plotted and analysed using Prism (Graphpad, version 8).
(§3) HeLa (3×10^5) and HEK293 (0.5×10^6) cells were seeded in standard 6-well plates (2 mL medium) overnight before treatment with compounds at 1 μM concentration, with a final DMSO concentration of 0.1% v/v. After incubation for the desired time (0-8 h), cells were washed with DPBS (Gibco) and lysed using 85 μL RIPA buffer (Sigma-Aldrich) supplemented with cOmplete Mini EDTA-free protease inhibitor cocktail (Roche) and benzonase. Lysates were clarified by centrifugation (20,000 g, 10 min, 4° C.) and the total protein content of the supernatant was quantified using a Bradford colorimetric assay. Samples were prepared using equal amounts of total protein and LDS sample buffer (Invitrogen).
(§4) Representative blots in FIG. 4 show depletion of Brd2, Brd3 and Brd4 protein levels following 1 μM treatment at various time points with representative compounds. Band intensities were normalized to the β-tubulin loading control and reported as % of the average 0.1% DMSO vehicle intensity, with each point representing mean±SEM of two independent experiments (n=2). Degradation data was plotted and analysed using Prism (Graphpad, version 8).
(§5) T½ (h) is the time required to deplete 50% of the protein relative to DMSO
On the technique in general: In western blotting, separated proteins are transferred to a membrane and probed.

Data set [2] addresses T2, Brd4 (S) (Homo sapiens, UniProt O60885).
T2 construct: endogenous in cells; host or cells: HEK293, HeLa
The data set is described as above. Set-up: dose or concentration left out as unconfirmed. The settings on record: timecourse 0-8 h. Here is the method:
as §1, §2, §3, §4, §5

Data set [3] deals with T3, Brd3 (Homo sapiens, UniProt Q15059). Briefly: Time-dependent BET degradation, immunoblot, HEK293 cells. More on the design: endogenous in cells; host or cells: HEK293. Particulars: HEK293, Brd3, 1 μM, timecourse 0-8 h. Here is the method: as §1, §2, §3, §4, §5
T3 sequence (Q15059 whole entry): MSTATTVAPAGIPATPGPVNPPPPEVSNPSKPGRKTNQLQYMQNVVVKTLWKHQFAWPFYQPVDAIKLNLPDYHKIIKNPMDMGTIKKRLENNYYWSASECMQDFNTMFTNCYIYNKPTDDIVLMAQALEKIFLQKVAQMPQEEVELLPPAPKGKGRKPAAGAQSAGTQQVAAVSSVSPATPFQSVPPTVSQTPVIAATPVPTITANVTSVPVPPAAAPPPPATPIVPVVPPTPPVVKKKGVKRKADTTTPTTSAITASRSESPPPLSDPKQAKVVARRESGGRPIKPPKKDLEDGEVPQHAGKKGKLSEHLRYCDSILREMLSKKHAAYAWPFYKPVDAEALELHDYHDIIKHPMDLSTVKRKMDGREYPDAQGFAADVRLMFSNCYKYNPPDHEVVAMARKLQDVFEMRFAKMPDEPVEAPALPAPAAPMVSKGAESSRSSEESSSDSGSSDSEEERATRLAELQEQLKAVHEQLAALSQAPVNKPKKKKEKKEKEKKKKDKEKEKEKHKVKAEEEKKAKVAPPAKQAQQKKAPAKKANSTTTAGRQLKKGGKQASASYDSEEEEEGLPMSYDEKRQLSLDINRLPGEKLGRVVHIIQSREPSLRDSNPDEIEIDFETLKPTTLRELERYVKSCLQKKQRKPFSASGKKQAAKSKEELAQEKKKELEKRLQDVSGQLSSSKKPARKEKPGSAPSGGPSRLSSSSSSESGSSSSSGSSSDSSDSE
The target in data set [4] is T4, Brd2 (Homo sapiens, UniProt P25440). The description is as above. Set-up: endogenous in cells; host or cells: HEK293. The settings on record: HEK293, Brd2, 1 μM, timecourse 0-8 h. Here is the method: as §1, §2, §3, §4, §5
T4 sequence (P25440 whole entry): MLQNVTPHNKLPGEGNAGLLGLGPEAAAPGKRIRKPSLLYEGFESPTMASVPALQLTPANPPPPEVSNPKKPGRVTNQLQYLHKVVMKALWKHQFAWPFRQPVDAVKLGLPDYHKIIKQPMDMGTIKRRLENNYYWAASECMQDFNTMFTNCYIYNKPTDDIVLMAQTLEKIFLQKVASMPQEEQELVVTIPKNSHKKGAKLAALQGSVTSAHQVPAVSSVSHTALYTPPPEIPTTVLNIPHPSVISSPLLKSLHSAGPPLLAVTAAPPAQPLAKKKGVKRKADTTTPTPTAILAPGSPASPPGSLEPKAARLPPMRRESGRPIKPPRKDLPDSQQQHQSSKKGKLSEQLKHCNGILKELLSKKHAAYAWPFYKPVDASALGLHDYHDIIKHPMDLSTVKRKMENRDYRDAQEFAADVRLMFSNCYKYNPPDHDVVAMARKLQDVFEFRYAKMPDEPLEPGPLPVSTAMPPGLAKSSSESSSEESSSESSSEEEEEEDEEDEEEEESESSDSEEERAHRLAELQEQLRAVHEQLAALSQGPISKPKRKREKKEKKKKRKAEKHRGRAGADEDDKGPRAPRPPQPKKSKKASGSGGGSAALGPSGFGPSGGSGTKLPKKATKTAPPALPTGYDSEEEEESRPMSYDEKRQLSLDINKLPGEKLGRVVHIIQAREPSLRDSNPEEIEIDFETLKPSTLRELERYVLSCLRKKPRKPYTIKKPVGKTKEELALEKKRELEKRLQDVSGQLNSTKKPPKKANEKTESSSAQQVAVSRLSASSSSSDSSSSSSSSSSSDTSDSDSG
Data set [5] has as its target T1, Brd4 (L). Briefly: Concentration-dependent BET degradation, immunoblot, HEK293 cells. The settings on record: 6 h treatment, 1 nM-10 μM; for Dmax: read-out: Dmax (%) maximum degradation observed. Here is the method:
as §1, §2
as §3, with “(5×10^5)” for “(3×10^5)”, “(1×10^6)” for “(0.5×10^6)”, “the desired concentration (1 nM-10 μM),” for “1 μM concentration,”, “6 h treatment time,” for “incubation for the desired time (0-8 h),”, “(20,000g,” for “(20,000 g,”, “(Invitrogen.” for “(Invitrogen).”
(§6) Representative blots in FIG. 3 show depletion of Brd2, Brd3 and Brd4 protein levels following treatment with increasing concentrations of representative compounds. Band intensities were normalized to the β-tubulin loading control and reported as % of the average 0.1% DMSO vehicle intensity, with each point representing mean±SEM of two independent experiments (n=2). Degradation data was plotted and analysed using Prism (Graphpad, version 8)

The target of data set [6] is T2, Brd4 (S). The data set is described as above. Particulars: 6 h treatment, 1 nM-10 μM; for Dmax: read-out: Dmax (%) maximum degradation observed. Here is the method: as §1, §2
as §3, with “(5×10^5)” for “(3×10^5)”, “(1×10^6)” for “(0.5×10^6)”, “the desired concentration (1 nM-10 μM),” for “1 μM concentration,”, “6 h treatment time,” for “incubation for the desired time (0-8 h),”, “(20,000g,” for “(20,000 g,”, “(Invitrogen.” for “(Invitrogen).”
as §6

The target of data set [7] is T1, Brd4 (L). Nature of the data set: Concentration-dependent BET degradation, immunoblot, HeLa cells. Particulars: 6 h treatment, 1 nM-10 μM; for Dmax: read-out: Dmax (%) maximum degradation observed. Here is the method:
as §1, §2
as §3, with “(5×10^5)” for “(3×10^5)”, “(1×10^6)” for “(0.5×10^6)”, “the desired concentration (1 nM-10 μM),” for “1 μM concentration,”, “6 h treatment time,” for “incubation for the desired time (0-8 h),”, “(20,000g,” for “(20,000 g,”, “(Invitrogen.” for “(Invitrogen).”
as §6

Data set [8] addresses T2, Brd4 (S). The data set is described as above. The settings on record: 6 h treatment, 1 nM-10 μM; for Dmax: read-out: Dmax (%) maximum degradation observed. Here is the method: as §1, §2
as §3, with “(5×10^5)” for “(3×10^5)”, “(1×10^6)” for “(0.5×10^6)”, “the desired concentration (1 nM-10 μM),” for “1 μM concentration,”, “6 h treatment time,” for “incubation for the desired time (0-8 h),”, “(20,000g,” for “(20,000 g,”, “(Invitrogen.” for “(Invitrogen).”
as §6

Data set [9] concerns the target T3, Brd3. Briefly: Concentration-dependent BET degradation, immunoblot, HEK293 cells. Particulars: HEK293, Brd3, 6 h treatment, 1 nM-10 μM; for Dmax: read-out: Dmax (%) maximum degradation observed. Set-up: endogenous in cells; host or cells: HEK293. Here is the method:
as §1, §2
as §3, with “(5×10^5)” for “(3×10^5)”, “(1×10^6)” for “(0.5×10^6)”, “the desired concentration (1 nM-10 μM),” for “1 μM concentration,”, “6 h treatment time,” for “incubation for the desired time (0-8 h),”, “(20,000g,” for “(20,000 g,”, “(Invitrogen.” for “(Invitrogen).”
as §6

The target in data set [10] is T4, Brd2. The data set is described as above. More on the design: endogenous in cells; host or cells: HEK293. Particulars: HEK293, Brd2, 6 h treatment, 1 nM-10 μM; for Dmax: read-out: Dmax (%) maximum degradation observed. Here is the method:
as §1, §2
as §3, with “(5×10^5)” for “(3×10^5)”, “(1×10^6)” for “(0.5×10^6)”, “the desired concentration (1 nM-10 μM),” for “1 μM concentration,”, “6 h treatment time,” for “incubation for the desired time (0-8 h),”, “(20,000g,” for “(20,000 g,”, “(Invitrogen.” for “(Invitrogen).”
as §6

In data set [11] the target is T1, Brd4 (L). Nature of the data set: Time-dependent BET degradation, immunoblot, HEK293 cells. Set-up: dose or concentration left out as unconfirmed. The settings on record: timecourse 0-8 h. Here is the method: as §1, §2, §3, §4, §5
In data set [12] the target is T2, Brd4 (S). Described as above. Set-up: dose or concentration left out as unconfirmed. Particulars: timecourse 0-8 h. Here is the method:
as §1, §2, §3, §4, §5

Data set [13] has as its target T3, Brd3. Nature of the data set: Time-dependent BET degradation, immunoblot, HeLa cells. Set-up: endogenous in cells; host or cells: HeLa. Particulars: Brd3, 1 μM, timecourse 0-8 h. Here is the method: as §1, §2, §3, §4, §5
The target of data set [14] is T4, Brd2. Described as above. More on the design: endogenous in cells; host or cells: HeLa. Particulars: Brd2, 1 μM, timecourse 0-8 h. Here is the method:
as §1, §2, §3, §4, §5

Data set [15] has as its target T3, Brd3. Nature of the data set: Concentration-dependent BET degradation, immunoblot, HeLa cells. More on the design: endogenous in cells; host or cells: HeLa. The settings on record: Brd3, 6 h treatment, 1 nM-10 μM; for Dmax: read-out: Dmax (%) maximum degradation observed. Here is the method: as §1, §2
as §3, with “(5×10^5)” for “(3×10^5)”, “(1×10^6)” for “(0.5×10^6)”, “the desired concentration (1 nM-10 μM),” for “1 μM concentration,”, “6 h treatment time,” for “incubation for the desired time (0-8 h),”, “(20,000g,” for “(20,000 g,”, “(Invitrogen.” for “(Invitrogen).”
as §6

For data set [16], the target named is T4, Brd2. Described as above. Particulars: Brd2, 6 h treatment, 1 nM-10 μM; for Dmax: read-out: Dmax (%) maximum degradation observed. More on the design: endogenous in cells; host or cells: HeLa. Here is the method:
as §1, §2
as §3, with “(5×10^5)” for “(3×10^5)”, “(1×10^6)” for “(0.5×10^6)”, “the desired concentration (1 nM-10 μM),” for “1 μM concentration,”, “6 h treatment time,” for “incubation for the desired time (0-8 h),”, “(20,000g,” for “(20,000 g,”, “(Invitrogen.” for “(Invitrogen).”
as §6

A further data set deals with MV4-11 cells. Nature of the data set: Anti-proliferative effect, CellTiter-Glo assay. Particulars: MV4-11, CellTiter-Glo, 72 h incubation, 5 μM and below. Here is the method:
The anti-proliferative effects of representative compounds were measured using the CellTiter-Glo assay (Promega). MV4-11 cells were incubated in a sterile, white, clear-bottomed 384-well cell-culture microplate (Greiner Bio-one), at 2× concentration in RPMI media and a volume of 25 μl. The next day, test compounds were serially diluted in RPMI media to 2× concentration, then added to cells to make a final volume of 50 μl. After a 72 h incubation 25 μl of CellTiter-Glo reagent was added to each well. Following 15 minute incubation the luminescence signal was read on a Pherastar FS. The final concentration of assay components are as follows: 3×10^5 cells/mL, 0.05% DMSO, 5 μM and below compound. Data (FIG. 11) was processed and dose-response curves generated using Prism 8 (Graphpad).
A general note: In ATP-based viability assays light output follows the ATP content of the culture.

The structures appear in SMILES notation.

In the case of `CCCC(NC(=O)/C(C#N)=C/c1cccc(Br)n1)c1ccc(OCC=NOCC(=O)NCCOCCOCCOCCNC(=O)c2ccc3c(c2)[C@H](Nc2ccc(Cl)cc2)C[C@H](C)N3C(C)=O)cc1` (stereo partly drawn) [Example 05IB2], the Dmax was 67% on Brd4 (L) [1]; 67% at Brd4 (S) [2]; no less than 71% at Brd4 (L) [5]; no less than 71% on Brd4 (S) [6]; no less than 71% on Brd4 (L) [7]; no less than 71% at Brd4 (S) [8]. Also, the Dmax on Brd3 [9] is no less than 71%; on Brd2 [10], 51 to 70%; at Brd4 (L) [11], 100%; at Brd4 (S) [12], 100%; on Brd3 [15], 26 to 50%; on Brd2 [16], 26 to 50%. Moreover, the Dmax at 1 µM at Brd3 [3] came to 100%; at Brd2 [4], 76%; on Brd3 [13], 93%; at Brd2 [14] it was 50%. Moreover, the DC50 is no more than 0.05 µM on Brd4 (L) [5]; no more than 0.05 µM at Brd4 (S) [6]; 0.051 to 0.5 µM on Brd4 (L) [7]; 0.051 to 0.5 µM at Brd4 (S) [8]; 0.051 to 0.5 µM on Brd3 [9]; 0.051 to 0.5 µM on Brd2 [10]. Further, the DC50 on Brd3 [15] and on Brd2 [16] was 0.051 to 0.5 µM each time.

Regarding `CCC[C@H](NC(=O)/C(C#N)=C/c1cccc(Br)n1)c1ccccc1` [Degrasyn, reference compound], the “cytotoxicity profile (anti-proliferative effect)” value with MV4-11 cells is recorded as “significantly less cytotoxicity”.

With `CCCC(NC(=O)C(C#N)Cc1cccc(Br)n1)c1ccc(OCCOCCOCCOCCOCCOCCOCCNC(=O)c2ccc(-c3ccc4c(c3)[C@H](Nc3ccc(Cl)cc3)C[C@H](C)N4C(C)=O)cc2)cc1` (stereo partly drawn) [Example 05IB12], the Dmax at Brd4 (L) [5] was no more than 25%; on Brd4 (S) [6], 26 to 50%; on Brd4 (L) [7], no more than 25%; on Brd4 (S) [8], no more than 25%; at Brd3 [9] it was no more than 25%; at Brd2 [10] it was no more than 25%. The Dmax was 26 to 50% at Brd3 [15] and no more than 25% at Brd2 [16].

One may read the Dmax as the greatest extent of degradation seen. As usually defined, the DC50 is the concentration at which degradation of the target reaches its halfway point.
